Measurements reported in patent US8980886B2, “Anthranilic acid derivatives” (Bayer Cropscience AG, priority 2010, dated 2015).

Key:
[1] = logP by HPLC on reversed-phase columns (C 18), EEC Directive 79/831 Annex V.A8; type: physicochemical; settings: reversed-phase HPLC column (C 18), pH 2.7, HPLC, reversed-phase C 18, acidic range pH 2.7; table of compounds; read-out: log P
Protocol: The logP values reported in the table above and in the Preparation Examples were determined in accordance with EEC Directive 79/831 Annex V.A8 by HPLC (High Performance Liquid Chromatography) on reversed-phase columns (C 18), with the following methods: The LC-MS determination in the acidic range is carried out at pH 2.7 using the mobile phases 0.1% aqueous formic acid and acetonitrile (contains 0.1% formic acid), linear gradient from 10% acetonitrile to 95% acetonitrile Calibration was carried out using unbranched alkan-2-ones (having from 3 to 16 carbon atoms) with known logP values (the logP values were determined by the retention times using linear interpolation between two successive alkanones).

[2] = test system: Tetranychus urticae; experiment: Tetranychus test, OP-resistant (TETRUR spray treatment); type: in vivo; settings: 100 g/ha, sprayed bean leaf discs, all stages, after 6 days
Protocol: (§1) Solvents: 78.0 parts by weight of acetone 1.5 parts by weight of dimethylformamide Emulsifier: 0.5 part by weight of alkylaryl polyglycol ether To produce a suitable preparation of active compound, 1 part by weight of active compound is mixed with the stated amount of solvents and emulsifier, and the concentrate is diluted with emulsifier-containing water to the desired concentration. Discs of bean leaves (Phaseolus vulgaris) which are infested by all stages of the greenhouse red spider mite (Tetranychus urticae) are sprayed with an active compound preparation of the desired concentration. After 6 days, the activity in % is determined. 100% means that all of the spider mites have been killed; 0% means that none of the spider mites have been killed.

[3] = test system: Myzus persicae; experiment: Myzus test (MYZUPE spray treatment); type: in vivo; settings: 100 g/ha, sprayed Chinese cabbage discs, all stages, after 6 days
Protocol: as §1, with “78” for “78.0”, “Chinese cabbage (Brassica pekinensis)” for “bean leaves (Phaseolus vulgaris) which are”, “green peach aphid (Myzus persicae)” for “greenhouse red spider mite (Tetranychus urticae)”, “effect” for “activity”, “aphids” for “spider mites”

[4] = test system: Spodoptera frugiperda; experiment: Spodoptera frugiperda test (SPODFR spray treatment); type: in vivo; settings: foliar, 168 h, sprayed maize leaf discs, after 7 days, read-out: effect in % (caterpillars killed)
Protocol: Solvents: 78.0 parts by weight of acetone 1.5 parts by weight of dimethylformamide Emulsifier: 0.5 part by weight of alkylaryl polyglycol ether To produce a suitable preparation of active compound, 1 part by weight of active compound is mixed with the stated amount of solvents and emulsifier, and the concentrate is diluted with emulsifier-containing water to the desired concentration. Discs of maize leaves (Zea mays) are sprayed with an active compound preparation of the desired concentration and, after drying, populated with caterpillars of the armyworm (Spodoptera frugiperda). After 7 days, the effect in % is determined 100% means that all caterpillars have been killed; 0% means that none of the caterpillars have been killed.

[5] = test system: Phaedon cochleariae; experiment: Phaedon test (PHAECO spray treatment); type: in vivo; settings: 168 h, sprayed Chinese cabbage discs, after 7 days, read-out: activity in % (beetle larvae killed)
Protocol: Solvents: 78.0 parts by weight of acetone 1.5 parts by weight of dimethylformamide Emulsifier: 0.5 part by weight of alkylaryl polyglycol ether To produce a suitable preparation of active compound, 1 part by weight of active compound is mixed with the stated amount of solvents and emulsifier, and the concentrate is diluted with emulsifier-containing water to the desired concentration. Discs of Chinese cabbage (Brassica pekinensis) are sprayed with an active compound preparation of the desired concentration and, after drying, populated with larvae of the mustard beetle (Phaedon cochleariae). After 7 days, the activity in % is determined. 100% means that all beetle larvae have been killed; 0% means that none of the beetle larvae have been killed.

[6] = test system: Lucilia cuprina; experiment: Lucilia cuprina test (LUCICU); type: in vivo; settings: 48 h, treated horse meat, larvae, after 2 days, read-out: kill in %
Protocol: (§2) Solvent: dimethyl sulphoxide To produce a suitable preparation of active compound, 10 mg of active compound are mixed with 0.5 ml of dimethyl sulphoxide and the concentrate is diluted with water to the desired concentration. Vessels containing horse meat treated with the active compound preparation of the desired concentration are populated with about 20 Lucilia cuprina larvae. After 2 days, the kill in % is determined. 100% means that all of the larvae have been killed; 0% means that none of the larvae have been killed.

[7] = test system: Boophilus microplus; experiment: Boophilus microplus test (BOOPMI injection); type: in vivo; settings: 20 μg/animal, injection into the abdomen, after 7 days
Protocol: Solvent: dimethyl sulphoxide To produce a suitable preparation of active compound, 10 mg of active compound are mixed with 0.5 ml of solvent and the concentrate is diluted with solvent to the desired concentration. The active compound solution is injected into the abdomen (Boophilus microplus), and the animals are transferred into dishes and stored in a climate-controlled room. The activity is assessed by […] of fertile eggs. After 7 days, the effect in % is determined. 100% means that none of the ticks has laid any fertile eggs.

[8] = test system: Musca domestica; experiment: Musca domestica test (MUSCDO); type: in vivo; settings: 100 ppm, treated sponge, adult flies, after 2 days
Protocol: as §2, with “a sponge” for “horse meat”, “adult Musca domestica.” for “about 20 Lucilia cuprina larvae.”, “flies” for “larvae”

chromatographic logP [1]	Compound	activity in % (spider mites killed) [2] [%]	effect in % (aphids killed) [3] [%]	pest or weed control at 100 g/ha [4] [%]	pest or weed control at 100 g/ha [5] [%]	pest or weed control at 100 ppm [6] [%]	effect in % (no fertile eggs laid) [7] [%]	kill in % [8] [%]
4.75	Cc1cc(Cl)cc(C(=O)NC(C)(C)C)c1NC(=O)c1nc(Cn2nnc(C(F)(F)F)n2)sc1-c1ccccc1Cl [Compound 8]	80	–	–	–	–	–	–
3.75	CNC(=O)c1cc(Cl)cc(C)c1NC(=O)c1cc(Cn2nnc(C(F)(F)F)n2)cn1-c1ccccc1Cl [Compound 43]	–	100	100	100	–	–	–
3.01	Cc1cc(Cl)cc(C(N)=O)c1NC(=O)c1cnc(Cn2nnc(C(F)(F)F)n2)nc1-c1ccccc1Cl [Compound 35]	–	–	100	100	100	98	–
3.5	Cc1cc(C#N)cc(C(=O)NC(C)C)c1NC(=O)c1cnc(Cn2nnc(C(F)(F)F)n2)nc1-c1ccccc1Cl [Compound 37]	–	–	100	100	100	100	100
3.91	Cc1cc(Cl)cc(C(=O)NC(C)C)c1NC(=O)c1cnc(Cn2nnc(C(F)(F)F)n2)nc1-c1ccccc1Cl [Compound 34]	–	–	100	100	100	100	–
3.7	Cc1cc(C#N)cc(C(=O)NC(C)C)c1NC(=O)c1sc(Cn2nnc(C(F)(F)F)n2)nc1-c1ccccc1Cl [Compound 25]	–	–	100	100	–	–	–
3.31	CNC(=O)c1cc(C#N)cc(C)c1NC(=O)c1cc(Cn2nnc(C(F)(F)F)n2)cn1-c1ccccc1Cl [Compound 42]	–	80	100	100	–	–	–
3.45	Cc1cc(Br)cc(C(N)=O)c1NC(=O)c1sc(Cn2nnc(C(F)(F)F)n2)nc1-c1ccccc1Cl [Compound 3]	100	–	–	–	100	–	–
3.85	Cc1cc(C#N)cc(C(=O)NC(C)(C)C)c1NC(=O)c1cnc(Cn2nnc(C(F)(F)F)n2)nc1-c1ccccc1Cl [Compound 39]	–	–	100	100	100	100	–
2.69	Cc1cc(C#N)cc(C(N)=O)c1NC(=O)c1cnc(Cn2nnc(C(F)(F)F)n2)nc1-c1ccccc1Cl [Compound 40]	–	–	100	100	100	100	–
4.15	Cc1cc(Cl)cc(C(=O)NC(C)C)c1NC(=O)c1sc(Cn2nnc(C(F)(F)F)n2)nc1-c1ccccc1Cl [Compound 32]	–	–	100	100	–	–	–
4.09	CNC(=O)c1cc(Cl)cc(C)c1NC(=O)c1cc(Cn2nnc(C(F)(F)C(F)(F)F)n2)cn1-c1ccccc1Cl [Compound 44]	–	–	100	100	–	–	–
4.33	Cc1cc(Cl)cc(C(=O)NC(C)(C)C)c1NC(=O)c1cnc(Cn2nnc(C(F)(F)F)n2)nc1-c1ccccc1Cl [Compound 41]	–	–	100	100	100	100	–
2.93	CNC(=O)c1cc(C#N)cc(C)c1NC(=O)c1cnc(Cn2nnc(C(F)(F)F)n2)nc1-c1ccccc1Cl [Compound 38]	–	–	100	100	100	100	–
4.07	Cc1cc(C#N)cc(C(=O)NC(C)(C)C)c1NC(=O)c1sc(Cn2nnc(C(F)(F)F)n2)nc1-c1ccccc1Cl [Compound 30]	–	–	100	100	–	–	–
3.34	Cc1cc(Cl)cc(C(N)=O)c1NC(=O)c1sc(Cn2nnc(C(F)(F)F)n2)nc1-c1ccccc1Cl [Compound 13]	–	–	100	100	–	–	–
4.28	Cc1cc(Br)cc(C(=O)NC(C)C)c1NC(=O)c1sc(Cn2nnc(C(F)(F)F)n2)nc1-c1ccccc1Cl [Compound 11]	–	–	83	83	–	–	–
4.59	Cc1cc(Cl)cc(C(=O)NC(C)(C)C)c1NC(=O)c1sc(Cn2nnc(C(F)(F)F)n2)nc1-c1ccccc1Cl [Compound 27]	–	–	100	100	–	–	–
